Where two headings read alike, the source gives them in different places.
Columns and labels:
[1] = test system: L. donovani promastigotes; test: Growth inhibition of L. donovani promastigotes (resazurin-based assay); assay type: cell-based, Leishmania donovani; parameters: Inhibition at both 50 and 25 µM concentrations: unit: %; details: for inhibition at 25 µM / inhibition at 50 µM / IC50: Leishmania donovani, 72 h, incubation 3 days; for inhibition at 25 µM / inhibition at 50 µM: relative to control; for inhibition at 25 µM: read-out: % Inhibition at 25 µM concentration; for inhibition at 50 µM: read-out: % Inhibition at 50 µM concentration; for IC50: extracellular promastigotes, duplicates, read-out: IC50 ± SD, growth of L. donovani promastigotes; for Potency against promastigotes (in words): dose-response evaluation
Protocol: Out of 20 known Leishmania species pathogenic to humans, L. donovani, which causes visceral leishmaniasis, is the most fatal. Consequently, an in vitro model of L. donovani promastigotes[26] was selected to evaluate the activity of the synthesised pyrrolidine-based 3-deoxysphingosylphosphorylcholine analogs 1e–i, 2a–f, 3a–f at two concentration (50 and 25 µM) employing miltefosine and erufosine (ErPC; erucylphosphocholine) as reference standards using a resazurin-based assay.
For comparison, erufosine and miltefosine were used as reference standards.
L. donovani MHOM/SD/62/1S-CL2D parasites were cultured as promastigotes at 28 °C in M199 medium (Sigma-Aldrich, St. Louis, MO, USA) with 40 mM HEPES, 0.1 mM adenine, 0.0001% biotin, and 4.62 mM NaHCO3 supplemented with 10% foetal bovine serum (FBS, Gibco, Carlsbad, CA, USA), […] penicillin (Gibco), and 100 µg/mL streptomycin (Gibco). Parasites were sub-cultured every 3 or 4 days and maintained for 10 passages.
The plates were analysed using a Victor3TM plate reader (PerkinElmer, Inc., Waltham, MA, USA) at 590 nm (emission) and 530 nm (excitation). Miltefosine and erufosine were used as the reference standards. All measured and calculated values are the averages of duplicates. The dose-response curves were generated by GraphPad Prism 6 software using a sigmoidal dose-response equation with a variable hill slope option.

[2] = test system: intracellular L. donovani amastigotes; test: Intracellular L. donovani amastigotes in infected THP-1 cells (image-based); assay type: cell-based; details: Leishmania donovani, 72 h, duplicates, read-out: Intracellular L. donovani IC50 ± SD
From the text: (§1) As the extracellular promastigotes form represents the insect stage of the parasite, assessment of activity is needed to confirm activity against the intracellular amastigotes form, which is the human host form (mammalian host form). In addition, a preliminary assessment of selectivity and safety might be desirable to evaluate the quality of hit compounds. Accordingly, compound 1e and its enantiomer; 1a, in parallel with standard drugs miltefosine and erufosine were submitted for evaluation in intracellular amastigotes model using infected THP-1 cells; human monocytic cell line derived from an acute monocytic leukaemia. In addition, cytotoxicity of tested compounds and standards were evaluated against THP-1 cells and normal human embryonic kidney cells; HEK293T to evaluate selectivity and safety. PMA-treated THP-1 human monocytic cells were seeded at 0.8 × 10^4 cells per well in a 384-well culture plate (Greiner Bio-One, Kremsmünster, Austria) in RPMI-1640 complete medium supplemented with 10% FBS. After 48 h of incubation at 37 °C in the presence of 5% CO2, infected THP-1 cells were treated with miltefosine (at 80 µM, positive control), and tested compounds (at 200 µM). The negative control consisted of THP-1 infected with the parasite with only 0.5% DMSO. After 72 h, the cells that were infected and treated with the drug were washed with serum-free RPMI-1640 medium. The cells and parasites were stained using 5 µM DAPI and 4% PFA. The images were acquired based on reading using an Operetta® automated microscope (PerkinElmer, Inc., Waltham, MA 02451, USA). They were further analysed using Columbus^TM (PerkinElmer, Inc. Waltham, MA, USA) software to quantify parasite numbers, and host cell numbers. In brief, large-sized nucleus of host cells was first detected using DAPI signal and the host cell boundary masking was performed using the low-intensity signals from cytosols. Then the small-sized nucleus signal by DAPI was used to identify parasites within the area of the masked host cell. The DRC results were further assessed in a dose-dilution manner (two-fold serial dilution for 10 points starting from 200 µM).

[3] = Cytotoxicity against THP-1 host cells; assay type: cell-based, human; details: human, PMA-treated THP-1 monocytic cells infected with the parasite; THP-1 cells, duplicates; read-out: THP-1 cell CC50 ± SD
From the text: as §1

THP-1 cells = test: Cytotoxicity against THP-1 host cells; assay type: cell-based, human; details: CC50 THP-1 divided by IC50 intracellular L. donovani
From the text: as §1

[4] = Cytotoxicity against HEK293T cells (resazurin); assay type: cell-based; details: human, duplicates, read-out: HEK293T CC50 ± SD
From the text: As the extracellular promastigotes form represents the insect stage of the parasite, assessment of activity is needed to confirm activity against the intracellular amastigotes form, which is the human host form (mammalian host form). In addition, a preliminary assessment of selectivity and safety might be desirable to evaluate the quality of hit compounds. Accordingly, compound 1e and its enantiomer; 1a, in parallel with standard drugs miltefosine and erufosine were submitted for evaluation in intracellular amastigotes model using infected THP-1 cells; human monocytic cell line derived from an acute monocytic leukaemia. In addition, cytotoxicity of tested compounds and standards were evaluated against THP-1 cells and normal human embryonic kidney cells; HEK293T to evaluate selectivity and safety. Cytotoxicity against HEK293T cell growth was assayed by measuring the conversion of resazurin to resorufin. The assays were performed in 384-well plates that were seeded with HEK293T cells (1000 cells per well). After seeding, the cells were exposed to the compounds for 3 days. Resazurin sodium salt (200 µM; R7017; Sigma-Aldrich, St. Louis, MO, USA) was then added, and the samples were incubated for 5 h. After incubation, the […] were fixed using 4% paraformaldehyde, and the plates were analysed using a Victor3TM plate reader (PerkinElmer, Inc., Waltham, MA, USA) at 590 nm (emission) and 530 nm (excitation). Miltefosine and saponin were used as the reference drugs for the HEK293T growth inhibition.

[5] = test system: L. donovani promastigotes; parameters: method as in PMID 22506086; details: literature value; read-out: Reported IC50 against L. donovani promastigotes; cited from earlier work
L. major promastigotes = test system: L. major promastigotes; parameters: method as in PMID 21267500; details: cited from earlier work

SMILES	inhibition at 25 µM [1]	inhibition at 50 µM [1]	Activity at both 50 and 25 µM concentrations (in words) [1]	IC50 [1]	further results
CC/C=C\C/C=C\C/C=C\CCCCCCCC(=O)N1CCC[C@H]1COP(=O)([O-])OCC[N+](C)(C)C [Compound 1i]	-16%	1%	completely inactive		
CCCCCCCC/C=C\CCCCCCCCCCCC(=O)N1CC[C@@H](OP(=O)([O-])OCC[N+](C)(C)C)C1 [Compound 3d]	107%	104%	highly active	> 100 µM	Potency against promastigotes (in words) [1]: poor potency
CCCCCCCCCCCCCCCC(=O)N1CC[C@H](COP(=O)([O-])OCC[N+](C)(C)C)C1 [Compound 2a]	107%	108%	highly active	54.6 ± 2.02 µM	
CCCCCCCC/C=C\CCCCCCCC(=O)N1CCC[C@H]1COP(=O)([O-])OCC[N+](C)(C)C [Compound 1f]	65%	108%			
CC/C=C\C/C=C\C/C=C\CCCCCCCC(=O)N1CC[C@H](COP(=O)([O-])OCC[N+](C)(C)C)C1 [Compound 2f]	0%	9%	completely inactive		
CCCCCC/C=C\CCCCCCCC(=O)N1CC[C@H](COP(=O)([O-])OCC[N+](C)(C)C)C1 [Compound 2b]	27%	98%			
CCCCCC/C=C\CCCCCCCC(=O)N1CCC[C@@H]1COP(=O)([O-])OCC[N+](C)(C)C [Compound 1b]	108%	109%		66.1 ± 3.61 µM	Inhibition at both 50 and 25 µM concentrations [1]: ≥ 100
CCCCCCCC/C=C\CCCCCCCC(=O)N1CCC[C@@H]1COP(=O)([O-])OCC[N+](C)(C)C [Compound 1c]	10%	51%			
CCCCC/C=C\C/C=C\CCCCCCCC(=O)N1CCC[C@H]1COP(=O)([O-])OCC[N+](C)(C)C [Compound 1h]	-18%	0%	completely inactive		
CCCCCC/C=C\CCCCCCCC(=O)N1CC[C@@H](OP(=O)([O-])OCC[N+](C)(C)C)C1 [Compound 3b]	67%	90%			
CCCCCCCCCCCCCCCC(=O)N1CC[C@@H](OP(=O)([O-])OCC[N+](C)(C)C)C1 [Compound 3a]	108%	109%	highly active	> 100 µM	Potency against promastigotes (in words) [1]: weak potency
CCCCCCCC/C=C\CCCCCCCCCCCC(=O)N1CC[C@H](COP(=O)([O-])OCC[N+](C)(C)C)C1 [Compound 2d]	107%	109%	highly active	> 100 µM	Potency against promastigotes (in words) [1]: poor potency
CCCCCCCCCCCCCCCC(=O)N1CCC[C@H]1COP(=O)([O-])OCC[N+](C)(C)C [Compound 1e]	107%	107%	highly active	28.3 ± 1.38 µM	IC50 [2]: 14.3 ± 2.03 µM; CC50 at 72 h [3]: 15.8 ± 3.23 µM; Selectivity index (THP-1 cells): 1.1; CC50 at 3 days [4]: 45.1 ± 5.01 µM
CC/C=C\C/C=C\C/C=C\CCCCCCCC(=O)N1CC[C@@H](OP(=O)([O-])OCC[N+](C)(C)C)C1 [Compound 3f]	-14%	1%	completely inactive		
CCCCCCCCCCCCCCCCOP(=O)([O-])OCC[N+](C)(C)C [Miltefosine, miltefosine, reference compound]	100%	100%		4.94 ± 0.47 µM	IC50 [2]: 2.55 ± 0.63 µM; CC50 at 72 h [3]: 40.8 ± 3.32 µM; Selectivity index (THP-1 cells): 16.0; CC50 at 3 days [4]: > 200 µM; IC50 [5]: 3.1 µM
CCCCCCCC/C=C\CCCCCCCCCCCC(=O)N1CCC[C@@H]1COP(=O)([O-])OCC[N+](C)(C)C [Compound 1d]	107%	108%		46.65 ± 0.45 µM	Inhibition at both 50 and 25 µM concentrations [1]: ≥ 100
CCCCCCCC/C=C\CCCCCCCCCCCCOP(=O)([O-])OCC[N+](C)(C)C [Erufosine, erucylphosphocholine, reference compound]	106%	108%		9.75 ± 2.41 µM	IC50 [2]: 3.61 ± 1.05 µM; CC50 at 72 h [3]: 3.94 ± 1.02 µM; Selectivity index (THP-1 cells): 1.1; CC50 at 3 days [4]: 40.8 ± 3.36 µM; IC50 [5]: 13.3 µM
CCCCC/C=C\C/C=C\CCCCCCCC(=O)N1CC[C@H](COP(=O)([O-])OCC[N+](C)(C)C)C1 [Compound 2e]	34%	101%			
CCCCCCCC/C=C\CCCCCCCC(=O)N1CC[C@H](COP(=O)([O-])OCC[N+](C)(C)C)C1 [Compound 2c]	-19%	107%			
CCCCCCCCCCCCCCCC(=O)N1CCC[C@@H]1COP(=O)([O-])OCC[N+](C)(C)C [Compound 1a]	107%	108%		52.6 ± 1.44 µM	Inhibition at both 50 and 25 µM concentrations [1]: ≥ 100; IC50 [2]: 11.3 ± 1.81 µM; CC50 at 72 h [3]: 25.3 ± 3.56 µM; Selectivity index (THP-1 cells): 2.2; CC50 at 3 days [4]: 30.6 ± 2.31 µM
CCCCC/C=C\C/C=C\CCCCCCCC(=O)N1CC[C@@H](OP(=O)([O-])OCC[N+](C)(C)C)C1 [Compound 3e]	0%	69%			
CCCCCCCC/C=C\CCCCCCCC(=O)N1CC[C@@H](OP(=O)([O-])OCC[N+](C)(C)C)C1 [Compound 3c]	106%	106%	maintained high activity	> 100 µM	Potency against promastigotes (in words) [1]: weak potency
CCCCCCCCCCCCC/C=C/C[C@@H](N)CO [Compound 26an]					Cytotoxicity against L. major promastigotes (in words) (L. major promastigotes): significant cytotoxicity
CCCCCCCC/C=C\CCCCCCCCCCCC(=O)N1CCC[C@H]1COP(=O)([O-])OCC[N+](C)(C)C [Compound 1g]	110%	109%	highly active	68.47 ± 0.04 µM	

Reference: publication PMC8386730, “Pyrrolidine-based 3-deoxysphingosylphosphorylcholine analogs as possible candidates against neglected tropical diseases (NTDs): identification of hit compounds towards development of potential treatment of Leishmania donovani” (Journal of Enzyme Inhibition and Medicinal Chemistry, 2021)
